{
  "source": "ChEMBL document CHEMBL2407022",
  "about": "“Advancement of Imidazo[1,2-a]pyridines with Improved Pharmacokinetics and Nanomolar Activity Against Mycobacterium tuberculosis” (ACS Med Chem Lett, 2013)",
  "key": {"[1]": {"system": "Mycobacterium tuberculosis", "assay": "Antimycobacterial activity against isoniazid, rifampin, ethambutol, kanamycin and p-aminosalicylic acid-resistant Mycobacterium tuberculosis after 14 days", "assay_type": "functional", "details": "336 h"}, "[2]": {"system": "Mycobacterium tuberculosis", "assay": "Antimycobacterial activity against drug-sensitive Mycobacterium tuberculosis clinical isolate 2 after 14 days", "assay_type": "functional", "details": "clinical isolate 2, 336 h"}, "[3]": {"system": "Mycobacterium tuberculosis", "assay": "Antimycobacterial activity against isoniazid, rifampin, ethambutol, pyrazinamide, streptomycin, kanamycin and p-aminosalicylic acid-resistant Mycobacterium tuberculosis after 14 days", "assay_type": "functional", "details": "336 h"}, "[4]": {"system": "Mycobacterium tuberculosis", "assay": "Antimycobacterial activity against drug-sensitive Mycobacterium tuberculosis clinical isolate 1 after 14 days", "assay_type": "functional", "details": "clinical isolate 1, 336 h"}, "[5]": {"system": "Mycobacterium tuberculosis", "assay": "Antimycobacterial activity against Mycobacterium tuberculosis H37Rv expressing pCHERRY3 after 4 days by plate format assay", "assay_type": "functional", "details": "96 h"}, "[6]": {"assay": "Drug metabolism in human liver microsomes assessed as monohydroxylations on imidazopyridine at 2 uM after 30 mins by LC/MS/MS analysis", "assay_type": "ADME, Microsome", "details": "0.5 h"}, "[7]": {"assay": "Drug metabolism in mouse liver microsomes assessed as monohydroxylations on imidazopyridine at 2 uM after 30 mins by LC/MS/MS analysis", "assay_type": "ADME, Microsome", "details": "0.5 h"}, "[8]": {"assay": "Drug metabolism in rat liver microsomes assessed as monohydroxylations on imidazopyridine at 2 uM after 30 mins by LC/MS/MS analysis", "assay_type": "ADME, Microsome", "details": "0.5 h"}, "[9]": {"biological_target": "Cytochrome P450 2C9 (Homo sapiens, UniProt P11712)", "sequence (P11712 whole entry)": "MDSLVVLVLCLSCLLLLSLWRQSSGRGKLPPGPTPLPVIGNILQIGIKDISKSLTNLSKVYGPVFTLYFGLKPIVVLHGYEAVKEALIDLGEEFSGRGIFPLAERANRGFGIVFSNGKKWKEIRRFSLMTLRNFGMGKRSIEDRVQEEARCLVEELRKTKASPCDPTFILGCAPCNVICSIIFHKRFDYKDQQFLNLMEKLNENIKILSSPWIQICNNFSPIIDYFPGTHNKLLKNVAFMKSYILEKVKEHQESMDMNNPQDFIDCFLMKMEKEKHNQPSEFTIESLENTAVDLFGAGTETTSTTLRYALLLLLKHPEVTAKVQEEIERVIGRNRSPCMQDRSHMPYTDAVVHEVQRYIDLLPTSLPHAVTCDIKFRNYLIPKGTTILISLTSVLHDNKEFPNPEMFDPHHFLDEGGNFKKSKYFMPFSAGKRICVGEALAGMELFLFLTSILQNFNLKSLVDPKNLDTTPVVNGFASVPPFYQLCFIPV", "assay": "Time dependent inhibition of CYP3A4 in human liver microsomes using midazolam as substrate at 10 uM after 10 mins", "assay_type": "ADME, Microsome"}, "[10]": {"assay": "Half life in Balb/c mouse at 10 mg/kg, po", "assay_type": "ADME, organism-based", "design": "dose 10 mg/kg, route oral", "details": "in vivo"}, "[11]": {"assay": "Tmax in Balb/c mouse at 10 mg/kg, po", "assay_type": "ADME, organism-based", "design": "dose 10 mg/kg, route oral", "details": "in vivo"}, "[12]": {"assay": "Tmax in Balb/c mouse at 3 mg/kg, po", "assay_type": "ADME, organism-based", "design": "dose 3 mg/kg, route oral", "details": "in vivo"}, "[13]": {"system": "Mycobacterium tuberculosis", "assay": "Antimycobacterial activity against Mycobacterium tuberculosis H37Rv expressing pCHERRY3 after 4 days by plate format assay in presence of bovine serum albumin", "assay_type": "functional, organism-based"}, "[14]": {"biological_target": "CYP3A4 (Homo sapiens, UniProt P11712)", "sequence (P11712 whole entry)": "as above", "assay": "Inhibition of CYP3A4 in human liver microsomes using midazolam as substrate at 10 uM after 10 mins", "assay_type": "ADME, Microsome", "details": "probe midazolam"}, "[15]": {"biological_target": "CYP2C9 (Homo sapiens, UniProt P11712)", "sequence (P11712 whole entry)": "as above", "assay": "Inhibition of CYP2C9 in human liver microsomes using diclofenac as substrate at 10 uM after 10 mins", "assay_type": "ADME, Microsome", "details": "probe diclofenac"}, "[16]": {"biological_target": "CYP2D6 (Homo sapiens, UniProt P10635)", "sequence (P10635 whole entry)": "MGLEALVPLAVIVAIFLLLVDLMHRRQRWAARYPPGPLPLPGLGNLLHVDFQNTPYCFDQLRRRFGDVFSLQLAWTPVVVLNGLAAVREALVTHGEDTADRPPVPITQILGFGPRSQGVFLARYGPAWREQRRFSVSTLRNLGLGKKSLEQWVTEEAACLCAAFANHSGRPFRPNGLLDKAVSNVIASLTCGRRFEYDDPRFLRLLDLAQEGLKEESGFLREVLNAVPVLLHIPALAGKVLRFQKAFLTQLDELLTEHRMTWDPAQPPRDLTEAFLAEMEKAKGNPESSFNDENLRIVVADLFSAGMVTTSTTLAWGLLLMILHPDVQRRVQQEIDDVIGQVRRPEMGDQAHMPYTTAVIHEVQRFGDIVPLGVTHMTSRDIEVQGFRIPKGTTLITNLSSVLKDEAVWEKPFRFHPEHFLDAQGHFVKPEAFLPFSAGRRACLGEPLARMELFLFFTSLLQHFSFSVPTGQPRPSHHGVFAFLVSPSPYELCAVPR", "assay": "Inhibition of CYP2D6 in human liver microsomes using bufuralol as substrate at 10 uM after 10 mins", "assay_type": "ADME, Microsome", "details": "probe bufuralol"}, "[17]": {"assay": "Drug metabolism in human liver microsomes at 2 uM after 30 mins by LC-MS analysis", "assay_type": "ADME, Microsome", "details": "read-out: Drug metabolism"}, "[18]": {"assay": "Drug metabolism in dog liver microsomes at 2 uM after 30 mins by LC-MS analysis", "assay_type": "ADME, Canis lupus familiaris, Microsome", "details": "read-out: Drug metabolism"}, "[19]": {"assay": "Drug metabolism in rat liver microsomes at 2 uM after 30 mins by LC-MS analysis", "assay_type": "ADME, Microsome", "details": "read-out: Drug metabolism"}, "[20]": {"assay": "Drug metabolism in mouse liver microsomes at 2 uM after 30 mins by LC-MS analysis", "assay_type": "ADME, Microsome", "details": "read-out: Drug metabolism"}, "[21]": {"assay": "Clearance in Balb/c mouse at 1 mg/kg, iv", "assay_type": "ADME, organism-based", "design": "dose 1 mg/kg, route intravenous", "details": "in vivo"}, "[22]": {"assay": "Half life in Balb/c mouse at 100 mg/kg, po", "assay_type": "ADME, organism-based", "design": "dose 100 mg/kg, route oral", "details": "in vivo"}, "[23]": {"assay": "Half life in Balb/c mouse at 3 mg/kg, po", "assay_type": "ADME, organism-based", "design": "dose 3 mg/kg, route oral", "details": "in vivo"}, "[24]": {"assay": "Tmax in Balb/c mouse at 100 mg/kg, po", "assay_type": "ADME, organism-based", "design": "dose 100 mg/kg, route oral", "details": "in vivo"}},
  "note": "The source made the active and inactive calls. No cut-off for these calls is given here.",
  "data": [
    {"smiles": "Cc1ccc2nc(C)c(C(=O)NCc3ccccc3)n2c1", "values": [
      {"measurement": "MIC99", "setting": "[1]", "result": "< 0.04", "unit": "µM"},
      {"measurement": "MIC99", "setting": "[2]", "result": "< 0.04", "unit": "µM"},
      {"measurement": "MIC99", "setting": "[3]", "result": "< 0.04", "unit": "µM"},
      {"measurement": "MIC99", "setting": "[4]", "result": 0.04, "unit": "µM"},
      {"measurement": "MIC99", "setting": "[5]", "result": 0.006, "unit": "µM"}
    ]},
    {"smiles": "COc1cccc(CNC(=O)c2c(C)nc3cc(Cl)ccn23)c1", "values": [
      {"measurement": "MIC99", "setting": "[5]", "result": 1.1, "unit": "µM"}
    ]},
    {"smiles": "O=[N+]([O-])c1cn2c(n1)OC[C@@H](OCc1ccc(OC(F)(F)F)cc1)C2", "note": "[PRETOMANID]", "values": [
      {"measurement": "MIC99", "setting": "[1]", "result": 0.5, "unit": "µM"},
      {"measurement": "MIC99", "setting": "[2]", "result": "> 13.9", "unit": "µM"},
      {"measurement": "MIC99", "setting": "[3]", "result": 0.5, "unit": "µM"},
      {"measurement": "MIC99", "setting": "[4]", "result": 0.5, "unit": "µM"},
      {"measurement": "MIC99", "setting": "[5]", "result": 0.6, "unit": "µM"}
    ]},
    {"smiles": "COc1cccc(NC(=O)c2c(C)nc3cc(C)ccn23)c1", "values": [
      {"measurement": "MIC99", "setting": "[5]", "result": "> 20", "unit": "µM"}
    ]},
    {"smiles": "Cc1ccn2c(C(=O)NCc3ccc(Oc4ccc(F)cc4)cc3)c(C)nc2c1", "values": [
      {"measurement": "Drug metabolism", "setting": "[6]", "result": "Active"},
      {"measurement": "Drug metabolism", "setting": "[7]", "result": "Active"},
      {"measurement": "Drug metabolism", "setting": "[8]", "result": "Active"},
      {"measurement": "inhibition (INH)", "setting": "[9]", "result": "Active"},
      {"measurement": "half-life", "setting": "[10]", "result": 13.2, "unit": "h"},
      {"measurement": "Tmax", "setting": "[11]", "result": 0.5, "unit": "h"},
      {"measurement": "Tmax", "setting": "[12]", "result": 0.5, "unit": "h"},
      {"measurement": "MIC99", "setting": "[1]", "result": "< 0.03", "unit": "µM"},
      {"measurement": "MIC99", "setting": "[2]", "result": "< 0.03", "unit": "µM"},
      {"measurement": "MIC90", "setting": "[3]", "result": 0.03, "unit": "µM"},
      {"measurement": "MIC99", "setting": "[4]", "result": "< 0.03", "unit": "µM"},
      {"measurement": "Activity", "setting": "[13]", "result": "Active"},
      {"measurement": "MIC99", "setting": "[5]", "result": 0.004, "unit": "µM"}
    ]},
    {"smiles": "NNC(=O)c1ccncc1", "note": "[ISONIAZID]", "values": [
      {"measurement": "MIC99", "setting": "[5]", "result": 0.3, "unit": "µM"}
    ]},
    {"smiles": "Cc1nc2c(C)cccn2c1C(=O)NCc1ccc(Oc2ccc(F)cc2)cc1", "values": [
      {"measurement": "MIC99", "setting": "[5]", "result": 0.1, "unit": "µM"}
    ]},
    {"smiles": "Cc1ccc2nc(C)c(C(=O)NCc3ccc(Oc4ccc(F)cc4)cc3)n2c1", "values": [
      {"measurement": "MIC99", "setting": "[5]", "result": 0.005, "unit": "µM"}
    ]},
    {"smiles": "C[C@H]1COC2(CCN(c3nc(=O)c4cc(C(F)(F)F)cc([N+](=O)[O-])c4s3)CC2)O1", "note": "[BTZ-043]", "values": [
      {"measurement": "MIC99", "setting": "[5]", "result": 0.003, "unit": "µM"}
    ]},
    {"smiles": "Cc1ccc2nc(C(F)(F)F)c(C(=O)NCc3ccc(S(C)(=O)=O)cc3)n2c1", "values": [
      {"measurement": "MIC99", "setting": "[5]", "result": 0.9, "unit": "µM"}
    ]},
    {"smiles": "Cc1ccn2c(C(=O)NCc3ncc(C(F)(F)F)cc3Cl)c(C)nc2c1", "values": [
      {"measurement": "Drug metabolism", "setting": "[6]", "result": "Active"},
      {"measurement": "Drug metabolism", "setting": "[7]", "result": "Active"},
      {"measurement": "Drug metabolism", "setting": "[8]", "result": "Active"},
      {"measurement": "inhibition (INH)", "setting": "[9]", "result": "Active"},
      {"measurement": "inhibition at 10 min, 10 µM", "setting": "[14]", "result": 0, "unit": "%"},
      {"measurement": "inhibition at 10 min, 10 µM", "setting": "[15]", "result": 11.5, "unit": "%"},
      {"measurement": "inhibition at 10 min, 10 µM", "setting": "[16]", "result": 2.8, "unit": "%"},
      {"measurement": "metabolised at 0.5 h, 2 µM", "setting": "[17]", "result": 0, "unit": "%"},
      {"measurement": "metabolised at 0.5 h, 2 µM", "setting": "[18]", "result": 41.2, "unit": "%"},
      {"measurement": "metabolised at 0.5 h, 2 µM", "setting": "[19]", "result": 19.3, "unit": "%"},
      {"measurement": "metabolised at 0.5 h, 2 µM", "setting": "[20]", "result": 79.9, "unit": "%"},
      {"measurement": "clearance", "setting": "[21]", "result": 43.1, "unit": "mL/min/kg"},
      {"measurement": "half-life", "setting": "[22]", "result": 1.93, "unit": "h"},
      {"measurement": "half-life", "setting": "[23]", "result": 5, "unit": "h"},
      {"measurement": "Tmax", "setting": "[12]", "result": 0.25, "unit": "h"},
      {"measurement": "Tmax", "setting": "[24]", "result": 2, "unit": "h"},
      {"measurement": "MIC99", "setting": "[1]", "result": 0.4, "unit": "µM"},
      {"measurement": "MIC99", "setting": "[3]", "result": 6.5, "unit": "µM"},
      {"measurement": "Activity", "setting": "[13]", "result": "Active"},
      {"measurement": "MIC99", "setting": "[5]", "result": 0.7, "unit": "µM"}
    ]},
    {"smiles": "CO[C@H]1/C=C/O[C@@]2(C)Oc3c(C)c(O)c4c(O)c(c(/C=N/N5CCN(C)CC5)c(O)c4c3C2=O)NC(=O)/C(C)=C\\C=C\\[C@H](C)[C@H](O)[C@@H](C)[C@@H](O)[C@@H](C)[C@H](OC(C)=O)[C@@H]1C", "note": "[RIFAMPIN]", "values": [
      {"measurement": "MIC99", "setting": "[5]", "result": 0.003, "unit": "µM"}
    ]},
    {"smiles": "Cc1ccn2c(C(=O)NCc3ccccc3)c(C)nc2c1", "values": [
      {"measurement": "metabolised at 0.5 h, 2 µM", "setting": "[19]", "result": 71, "unit": "%"},
      {"measurement": "Activity", "setting": "[13]", "result": "Active"},
      {"measurement": "MIC99", "setting": "[5]", "result": 0.2, "unit": "µM"}
    ]},
    {"smiles": "Cc1ccn2c(C(=O)NCc3ccc(S(N)(=O)=O)cc3)c(C)nc2c1", "values": [
      {"measurement": "MIC99", "setting": "[5]", "result": "> 20", "unit": "µM"}
    ]},
    {"smiles": "Cc1ccc2nc(C)c(C(=O)NCc3ccc(S(C)(=O)=O)cc3)n2c1", "values": [
      {"measurement": "MIC99", "setting": "[5]", "result": 0.4, "unit": "µM"}
    ]}
  ]
}
